Test system: genotype A, "Long" strain RSV
Experiment: RSV-A in vitro cytoprotection assay in HEp-2 cells (ATPlite readout of cell viability)
Assay type: cell-based, Human respiratory syncytial virus
Conditions: human respiratory syncytial virus, HEp-2, HEp-2 cells, genotype A “Long” strain RSV, cytoprotection; read-out: Human RSV-A (“Long” strain) EC50
Procedure, shortened: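 Cytoprotection measured as ATP-based luminescence (ATPlite) after 4-day incubation of RSV Long-infected HEp-2 cells (8,000/well, 10% FBS DMEM) with 2-fold serial compound dilutions in duplicate. Identically treated virus-free plate gives cytotoxicity; EC50 calculated from viability.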

`COCCn1cc(-c2cccc(C(=O)N3CCc4cc(C(=O)NC5CC5)sc4-c4ccccc43)n2)cn1` [Example 160] and `COCCn1cc(-c2cccc(C(=O)N3CCc4cc(C(=O)Nc5c(C)cccc5F)sc4-c4ccccc43)n2)c(C2CC2)n1` [Example 226] cannot be ordered by EC50: over 800 nM for the first, over 800 nM for the second.

`COCCN(c1cccc(C(=O)N2CCc3cc(C(=O)Nc4c(C)cccc4F)sc3-c3ccccc32)n1)C1CC1` [Example 471] and `COC(C)(C)CN(C)c1cccc(C(=O)N2CCc3cc(C(=O)Nc4c(C)cccc4F)sc3-c3ccccc32)n1` [Example 470] cannot be ordered by EC50: under 400 nM for the first, under 400 nM for the second.

Compared with `O=C(NC1CC1)c1cc2c(s1)-c1ccccc1N(C(=O)c1cccc(C3CCNCC3)n1)CC2` [Example 55], `O=C(NC1CCOCC1)c1cc2c(s1)-c1ccccc1N(C(=O)c1cccc(-c3c[nH]nc3C3CC3)n1)CC2` [Example 180] is lower in EC50: over 800 nM for the first, under 400 nM for the second.

`O=C(NC1CC1)c1cc2c(s1)-c1ccccc1N(C(=O)c1cccc(NCc3ccccn3)n1)CC2` [Example 288] and `COc1ccccc1CN(C)c1cccc(C(=O)N2CCc3cc(C(=O)NC4CC4)sc3-c3ccccc32)n1` [Example 289] cannot be ordered by EC50: over 800 nM for the first, over 800 nM for the second.

Compared with `Cc1cccc(F)c1NC(=O)c1cc2c(s1)-c1ccccc1N(C(=O)c1cccc(N3CCS(=O)(=O)CC3C)n1)CC2` (stereo not shown) [Example 432], `Cc1cccc(F)c1NC(=O)c1cc2c(s1)-c1ccccc1N(C(=O)c1cccc(N3CCS(=O)(=O)c4ccccc4[C@H]3C)n1)CC2` [Example 433] is higher in EC50: under 400 nM for the first, over 800 nM for the second. The first is the more potent here.

Compared with `Cc1ccc2c(-c3cccc(C(=O)N4CCc5cc(C(=O)Nc6c(C)cccc6F)sc5-c5ccccc54)n3)c[nH]c2c1` [Example 247], `Cc1cccc(F)c1NC(=O)c1cc2c(s1)-c1ccccc1N(C(=O)c1cccc(-c3cncn3-c3ccccc3)n1)CC2` [Example 203] is higher in EC50: under 400 nM for the first, over 800 nM for the second. The first is the more potent here.

Compared with `O=C(NC1CC1)c1cc2c(s1)-c1ccccc1N(C(=O)c1cncc(N3CCOCC3)c1)CC2` [Example 47], `Cc1cccc(F)c1NC(=O)c1cc2c(s1)-c1ccccc1N(C(=O)c1cccc(N3CCCOC(C)(C)C3)n1)CC2` [Example 402] is lower in EC50: over 800 nM for the first, under 400 nM for the second.

`Cc1cccc(F)c1NC(=O)c1cc2c(s1)-c1ccccc1N(C(=O)c1cccc(N3CCCN(S(=O)(=O)C4(C)CC4)CC3)n1)CC2` [Example 383] and `Cc1cccc(F)c1NC(=O)c1cc2c(s1)-c1c(F)cccc1N(C(=O)c1cccc(N3CCOc4ccccc4C3)n1)CC2` [Example 489] cannot be ordered by EC50: under 400 nM for the first, under 400 nM for the second.
